Experimental data reported in the OligoGym collection.
HELM strings list units from the 5' end as sugar, base in round brackets, then linkage (d deoxyribose, r ribose, m 2'-O-methyl, p phosphodiester). Strings are as the collection lists them, not checked against the first reports. ss, as = sense and antisense strand; [fl2r] = 2'-fluoro

Settings: siRNA
Also: test system not given here.

Substance	target mRNA knockdown [%]
RNA1{r(A)p.r(C)p.r(C)p.r(G)p.r(A)p.r(C)p.r(G)p.r(A)p.r(U)p.r(U)p.r(C)p.r(U)p.r(U)p.r(C)p.m(U)p.r(A)p.r(C)p.r(U)p.r(C)p.r(T)p.r(T)}|RNA2{r(G)p.r(A)p.r(G)p.m(U)p.r(A)p.r(G)p.r(A)p.r(A)p.r(G)p.m(A)p.m(A)p.r(U)p.r(C)p.r(G)p.r(U)p.r(C)p.r(G)p.r(G)p.r(U)p.r(T)p.r(T)}$$$RNA1{StrandType:ss}|RNA2{StrandType:as}$	67
RNA1{r(A)p.r(C)p.r(C)p.r(G)p.r(A)p.r(C)p.r(G)p.r(A)p.r(U)p.r(U)p.r(C)p.r(U)p.r(U)p.r(C)p.r(U)p.r(A)p.r(C)p.r(U)p.r(C)p.r(T)p.r(T)}|RNA2{r(G)p.r(A)p.r(G)p.m(U)p.r(A)p.r(G)p.r(A)p.r(A)p.r(G)p.r(A)p.r(A)p.r(U)p.r(C)p.r(G)p.r(U)p.r(C)p.r(G)p.r(G)p.r(U)p.r(T)p.r(T)}$$$RNA1{StrandType:ss}|RNA2{StrandType:as}$	68
RNA1{r(A)p.r(C)p.r(C)p.r(U)p.[fl2r](U)p.r(A)p.r(A)p.r(G)p.r(G)p.r(A)p.r(C)p.[fl2r](C)p.[fl2r](A)p.r(C)p.r(C)p.r(G)p.r(G)p.r(A)p.r(U)p.r(T)p.r(T)}|RNA2{r(A)p.r(U)p.r(C)p.r(C)p.r(G)p.r(G)p.[fl2r](U)p.[fl2r](G)p.r(G)p.r(U)p.r(C)p.r(C)p.r(U)p.[fl2r](U)p.[fl2r](A)p.r(A)p.r(G)p.r(G)p.r(U)p.r(T)p.r(T)}$$$RNA1{StrandType:ss}|RNA2{StrandType:as}$	70
RNA1{r(A)p.r(C)p.r(C)p.r(U)p.[fl2r](U)p.r(A)p.r(A)p.r(G)p.r(G)p.r(A)p.r(C)p.r(C)p.r(A)p.r(C)p.r(C)p.r(G)p.r(G)p.r(A)p.r(U)p.r(T)p.r(T)}|RNA2{r(A)p.r(U)p.r(C)p.r(C)p.r(G)p.r(G)p.[fl2r](U)p.r(G)p.r(G)p.r(U)p.r(C)p.r(C)p.r(U)p.r(U)p.r(A)p.r(A)p.r(G)p.r(G)p.r(U)p.r(T)p.r(T)}$$$RNA1{StrandType:ss}|RNA2{StrandType:as}$	71
RNA1{r(A)p.r(C)p.r(C)p.r(U)p.m(U)p.r(A)p.r(A)p.r(G)p.r(G)p.r(A)p.r(C)p.m(C)p.r(A)p.r(C)p.r(C)p.r(G)p.r(G)p.r(A)p.r(U)p.r(T)p.r(T)}|RNA2{r(A)p.r(U)p.r(C)p.r(C)p.r(G)p.r(G)p.m(U)p.r(G)p.r(G)p.r(U)p.r(C)p.r(C)p.r(U)p.m(U)p.r(A)p.r(A)p.r(G)p.r(G)p.r(U)p.r(T)p.r(T)}$$$RNA1{StrandType:ss}|RNA2{StrandType:as}$	72
RNA1{r(A)p.r(C)p.r(C)p.r(U)p.m(U)p.r(A)p.r(A)p.r(G)p.r(G)p.r(A)p.r(C)p.r(C)p.r(A)p.r(C)p.r(C)p.r(G)p.r(G)p.r(A)p.r(U)p.r(T)p.r(T)}|RNA2{r(A)p.r(U)p.r(C)p.r(C)p.r(G)p.r(G)p.r(U)p.r(G)p.r(G)p.r(U)p.r(C)p.r(C)p.r(U)p.m(U)p.r(A)p.r(A)p.r(G)p.r(G)p.r(U)p.r(T)p.r(T)}$$$RNA1{StrandType:ss}|RNA2{StrandType:as}$	74
RNA1{r(A)p.r(C)p.r(C)p.r(U)p.r(U)p.r(U)p.r(C)p.m(C)p.r(A)p.r(C)p.r(U)p.r(U)p.r(C)p.m(U)p.r(A)p.r(A)p.r(G)p.r(C)p.r(C)p.r(T)p.r(T)}|RNA2{r(G)p.r(G)p.r(C)p.r(U)p.m(U)p.r(A)p.r(G)p.r(A)p.r(A)p.r(G)p.m(U)p.r(G)p.r(G)p.r(A)p.r(A)p.r(A)p.r(G)p.r(G)p.r(U)p.r(T)p.r(T)}$$$RNA1{StrandType:ss}|RNA2{StrandType:as}$	75
RNA1{r(A)p.r(C)p.r(C)p.r(U)p.r(U)p.r(U)p.r(C)p.r(C)p.r(A)p.r(C)p.r(U)p.r(U)p.r(C)p.r(U)p.r(A)p.r(A)p.r(G)p.r(C)p.r(C)p.r(T)p.r(T)}|RNA2{r(G)p.r(G)p.r(C)p.m(U)p.m(U)p.r(A)p.r(G)p.r(A)p.r(A)p.r(G)p.m(U)p.r(G)p.r(G)p.r(A)p.r(A)p.r(A)p.r(G)p.r(G)p.m(U)p.r(T)p.r(T)}$$$RNA1{StrandType:ss}|RNA2{StrandType:as}$	80
RNA1{r(A)p.r(C)p.r(G)p.r(G)p.r(C)p.r(U)p.r(C)p.r(G)p.r(C)p.[fl2r](U)p.r(A)p.r(C)p.r(C)p.r(C)p.r(U)p.r(C)p.r(G)p.r(A)p.r(C)p.r(T)p.r(T)}|RNA2{r(G)p.r(U)p.r(C)p.r(G)p.r(A)p.r(G)p.r(G)p.r(G)p.[fl2r](U)p.r(A)p.r(G)p.r(C)p.r(G)p.r(A)p.r(G)p.r(C)p.r(C)p.r(G)p.r(U)p.r(T)p.r(T)}$$$RNA1{StrandType:ss}|RNA2{StrandType:as}$	78
RNA1{r(A)p.r(C)p.r(G)p.r(G)p.r(C)p.r(U)p.r(C)p.r(G)p.r(C)p.r(U)p.[fl2r](A)p.r(C)p.r(C)p.r(C)p.r(U)p.r(C)p.r(G)p.r(A)p.r(C)p.r(T)p.r(T)}|RNA2{r(G)p.r(U)p.r(C)p.r(G)p.r(A)p.r(G)p.r(G)p.r(G)p.r(U)p.r(A)p.r(G)p.r(C)p.r(G)p.r(A)p.r(G)p.r(C)p.r(C)p.r(G)p.r(U)p.r(T)p.r(T)}$$$RNA1{StrandType:ss}|RNA2{StrandType:as}$	83
RNA1{r(A)p.r(C)p.r(G)p.r(U)p.m(C)p.r(A)p.r(C)p.r(C)p.r(G)p.r(A)p.r(G)p.r(G)p.r(A)p.r(G)p.r(A)p.r(A)p.r(G)p.m(U)p.m(A)p.r(T)p.r(T)}|RNA2{m(U)p.m(A)p.r(C)p.r(U)p.r(U)p.r(C)p.r(U)p.r(C)p.r(C)p.r(U)p.r(C)p.r(G)p.r(G)p.m(U)p.r(G)p.r(A)p.r(C)p.r(G)p.r(U)p.r(T)p.r(T)}$$$RNA1{StrandType:ss}|RNA2{StrandType:as}$	74
RNA1{r(A)p.r(C)p.r(G)p.r(U)p.m(C)p.r(A)p.r(C)p.r(C)p.r(G)p.r(A)p.r(G)p.r(G)p.r(A)p.r(G)p.r(A)p.r(A)p.r(G)p.m(U)p.r(A)p.r(T)p.r(T)}|RNA2{r(U)p.r(A)p.r(C)p.r(U)p.r(U)p.r(C)p.r(U)p.r(C)p.r(C)p.r(U)p.r(C)p.r(G)p.r(G)p.m(U)p.r(G)p.r(A)p.r(C)p.r(G)p.r(U)p.r(T)p.r(T)}$$$RNA1{StrandType:ss}|RNA2{StrandType:as}$	48
RNA1{r(A)p.r(C)p.r(G)p.r(U)p.m(C)p.r(A)p.r(C)p.r(C)p.r(G)p.r(A)p.r(G)p.r(G)p.r(A)p.r(G)p.r(A)p.r(A)p.r(G)p.r(U)p.r(A)p.r(T)p.r(T)}|RNA2{m(U)p.r(A)p.r(C)p.r(U)p.r(U)p.r(C)p.r(U)p.r(C)p.r(C)p.r(U)p.r(C)p.r(G)p.r(G)p.m(U)p.r(G)p.r(A)p.r(C)p.r(G)p.r(U)p.r(T)p.r(T)}$$$RNA1{StrandType:ss}|RNA2{StrandType:as}$	80
RNA1{r(A)p.r(C)p.r(G)p.r(U)p.r(C)p.r(A)p.r(C)p.r(C)p.r(G)p.r(A)p.r(G)p.r(G)p.r(A)p.r(G)p.r(A)p.r(A)p.r(G)p.m(U)p.r(A)p.r(T)p.r(T)}|RNA2{r(U)p.r(A)p.r(C)p.r(U)p.r(U)p.r(C)p.r(U)p.r(C)p.r(C)p.r(U)p.r(C)p.r(G)p.r(G)p.r(U)p.r(G)p.r(A)p.r(C)p.r(G)p.r(U)p.r(T)p.r(T)}$$$RNA1{StrandType:ss}|RNA2{StrandType:as}$	69
RNA1{r(A)p.r(G)p.[fl2r](U)p.r(A)p.r(A)p.[fl2r](U)p.[fl2r](C)p.[fl2r](C)p.r(G)p.r(G)p.r(A)p.[fl2r](C)p.[fl2r](U)p.[fl2r](C)p.r(A)p.r(A)p.[fl2r](C)p.[fl2r](U)p.[fl2r](C)p.r(T)p.r(T)}|RNA2{r(G)p.r(A)p.r(G)p.r(U)p.r(U)p.r(G)p.r(A)p.r(G)p.r(U)p.r(C)p.r(C)p.r(G)p.r(G)p.r(A)p.r(U)p.r(U)p.r(A)p.r(C)p.r(U)p.r(T)p.r(T)}$$$RNA1{StrandType:ss}|RNA2{StrandType:as}$	59
RNA1{r(A)p.r(G)p.[fl2r](U)p.r(A)p.r(A)p.r(U)p.r(C)p.r(C)p.r(G)p.r(G)p.r(A)p.r(C)p.r(U)p.[fl2r](C)p.r(A)p.r(A)p.r(C)p.r(U)p.r(C)p.r(T)p.r(T)}|RNA2{r(G)p.r(A)p.r(G)p.r(U)p.[fl2r](U)p.r(G)p.r(A)p.r(G)p.r(U)p.r(C)p.r(C)p.r(G)p.r(G)p.r(A)p.r(U)p.[fl2r](U)p.r(A)p.r(C)p.r(U)p.r(T)p.r(T)}$$$RNA1{StrandType:ss}|RNA2{StrandType:as}$	68
RNA1{r(A)p.r(G)p.[fl2r](U)p.r(A)p.r(A)p.r(U)p.r(C)p.r(C)p.r(G)p.r(G)p.r(A)p.r(C)p.r(U)p.r(C)p.r(A)p.r(A)p.r(C)p.r(U)p.r(C)p.r(T)p.r(T)}|RNA2{r(G)p.r(A)p.r(G)p.r(U)p.r(U)p.r(G)p.r(A)p.r(G)p.r(U)p.r(C)p.r(C)p.r(G)p.r(G)p.r(A)p.r(U)p.[fl2r](U)p.r(A)p.r(C)p.r(U)p.r(T)p.r(T)}$$$RNA1{StrandType:ss}|RNA2{StrandType:as}$	69
RNA1{r(A)p.r(G)p.m(A)p.r(G)p.r(A)p.r(G)p.r(G)p.m(U)p.r(G)p.r(G)p.r(A)p.r(G)p.r(G)p.m(U)p.r(A)p.r(U)p.r(C)p.r(U)p.r(C)p.r(T)p.r(T)}|RNA2{r(G)p.r(A)p.r(G)p.r(A)p.m(U)p.r(A)p.r(C)p.r(C)p.r(U)p.r(C)p.m(C)p.r(A)p.r(C)p.r(C)p.r(U)p.m(C)p.r(U)p.r(C)p.r(U)p.r(T)p.r(T)}$$$RNA1{StrandType:ss}|RNA2{StrandType:as}$	87
RNA1{r(A)p.r(G)p.r(A)p.m(U)p.r(G)p.r(U)p.r(U)p.r(C)p.r(U)p.r(C)p.r(G)p.m(U)p.r(A)p.r(A)p.r(G)p.r(G)p.r(A)p.r(C)p.r(G)p.r(T)p.r(T)}|RNA2{r(C)p.r(G)p.r(U)p.r(C)p.r(C)p.r(U)p.m(U)p.r(A)p.r(C)p.r(G)p.r(A)p.r(G)p.r(A)p.r(A)p.m(C)p.r(A)p.r(U)p.r(C)p.r(U)p.r(T)p.r(T)}$$$RNA1{StrandType:ss}|RNA2{StrandType:as}$	60
RNA1{r(A)p.r(G)p.r(A)p.r(A)p.r(A)p.m(C)p.r(G)p.m(C)p.r(A)p.r(G)p.m(U)p.r(A)p.r(A)p.m(U)p.m(C)p.m(C)p.r(G)p.r(G)p.r(A)p.r(T)p.r(T)}|RNA2{m(U)p.m(C)p.m(C)p.r(G)p.r(G)p.r(A)p.m(U)p.m(U)p.r(A)p.m(C)p.m(U)p.r(G)p.m(C)p.r(G)p.m(U)p.m(U)p.m(U)p.m(C)p.m(U)p.r(T)p.r(T)}$$$RNA1{StrandType:ss}|RNA2{StrandType:as}$	80
